# Results taken from patent US20240206469A1, “PHOSPHORUS USE EFFICIENCY ENHANCERS AS PLANT GROWTH PROMOTORS” (EUROCHEM ANTWERPEN, priority 2021, published 2024).
# How the values were obtained:
# [1] = system: Arabidopsis; assay: Arabidopsis horizontal plate leaf area assay; type: in vivo, Arabidopsis thaliana; settings: 21 days after germination
# Method: All Arabidopsis plant experiments were performed using the Arabidopsis thaliana Columbia-0 background. The Arabidopsis pSPX1::GUS line is described in the Plant Journal 2008, 54: 965-975. For rice, the cultivar Nipponbare was used. For maize, the cultivars DKC 2931 and B104 were used for regular pot experiments and sand-based pot experiments, respectively. For soybean, the cultivar Primus was used. […] The medium was solidified due to the addition of 0.6% Gelrite, unless stated otherwise. […]
# Arabidopsis primary root growth experiments were done on MS1/2 on vertical standing plates and roots were measured 11 days after germination. Roots were imaged using a flatbed scanner (EPSON Expression 11000XL) and root length was measured using ImageJ software. Arabidopsis shoot biomass was determined in 11 days after germination and growth on vertical standing plates with modMS. Arabidopsis leaf area was measured 21 days after germination on horizontal plates with modMS medium. Plates were scanned from the top using a flatbed scanner (EPSON Expression 11000XL) and the visible leaf area was measured using ImageJ software. […] Plant height was measured 11 days after germination. […] Plant height was measured 13 days after germination. […]
# [2] = system: Arabidopsis; assay: Anthocyanin quantification, Arabidopsis 96-well plate; type: in vivo, Arabidopsis thaliana; settings: low phosphate, 50 μM, 7 days after germination, control = 1
# Method: Col-0 ecotype Arabidopsis seeds were sown in 96-well plates containing 150 μl of low phosphate modMS liquid medium containing 1% of sucrose. Compounds was added in 50 μM concentration (1% DMSO). Eight plants per repeat were collected 7 days after germination and put into a fresh Eppendorf. Extraction and quantification of anthocyanin levels was carried out according to The Plant cell 2013, 25:1641-1656. Anthocyanin levels were quantified by measuring absorption at 530 and 657 nm using a spectrophotometer and normalized to fresh weight input, and expressed relative to the low phosphate control. For pot experiments, the same procedure was followed with one 4-week old plant per sample.
# [3] = system: Maize DKC2931; assay: Long-term maize pot experiment, DKC2931 (PHENOVISION); type: in vivo, maize cultivar DKC 2931
# Method: Regular Arabidopsis, soybean and maize pot experiments used an unfertilized potting soil, which was supplemented at the start of the experiment with 50 ml H2O containing 0.25 g/l NH4NO3 and 0.44 g/l (high phosphate) or no (maize and soybean) or 0.11 g/l KH2PO (Arabidopsis) for low phosphate conditions. For the sand-based maize pot experiment, sand was supplemented with 50 ml H2O containing 0.25 g/l NH4NO3 and 0.38 g/l (high phosphate) or 0.02 g/l (low phosphate) KH2PO4. Potassium was balanced via addition of KCl. Compound concentration was 10 μM, calculated based on the total water content after watering, and was added at the start of the experiment (Arabidopsis) or once a week (maize). Indexed chlorophyll contents were received via a SPAD 502 Plus Chlorophyll Meter. All parameters in the sand experiment, except the rate of leaf 4 (measured the first 4 days after emergence), were measured 19 days after sowing. Measurements in the pot experiments with potting soil were done after 4 weeks of growth, except for leaf 5, which was measured at 26 days. One long-term maize pot experiment was conducted with the DKC 2931 (2.5 months) and B104 (3 months) cultivars on the PHENOVISION phenotyping platform as described in Frontiers in Plant Science 2021, 12: 640914, except that an unfertilized potting soil was used and that plants were fertilized with a low-phosphate Hoagland solution. The 2.5× overconcentrated low-phosphate Hoagland solution contained 0.034 g/l KH2PO and 200 mL of this solution was applied twice a week. 1.4 mL of a 10 mM compound solution was added each two weeks to each pot, corresponding to 9.6 mg/g nutrients. 13 plants per condition were used. During the experiment, pictures were taken twice a week for each plants from 6 different angles and the top. Pictures were used to extract the plant height and to extract the projected plant area from each side and calculate an estimated plant volume over time.
# [4] = system: Arabidopsis; assay: Arabidopsis vertical plate growth assay (primary root length, shoot biomass); type: in vivo, Arabidopsis thaliana; settings: 10 μM, low phosphate
# Method: All Arabidopsis plant experiments were performed using the Arabidopsis thaliana Columbia-0 background. The Arabidopsis pSPX1::GUS line is described in the Plant Journal 2008, 54: 965-975. For rice, the cultivar Nipponbare was used. For maize, the cultivars DKC 2931 and B104 were used for regular pot experiments and sand-based pot experiments, respectively. For soybean, the cultivar Primus was used. […] The medium was solidified due to the addition of 0.6% Gelrite, unless stated otherwise. In case of vertical plates (root length and root hair measurements), the medium was supplied with 0.5% of sucrose and 1 μM (low phosphate, 1 μM KH2PO4, 9.9 mM KCl), 10 μM (low phosphate 10 μM KH2PO4, 9.9 mM KCl) or 1.25 mM KH2PO4 (high phosphate). Arabidopsis seeds were stratified for 2 days at 4° C. before germination. Seedlings were germinated in climate-controlled growth chambers at 22° C. under continuous light (100 μmol m^−2 s^−1). Husked rice seeds were germinated on wetted Whatman paper for 2 days at 37° C. and then transferred to Sterivent boxes or square Petri dishes with solid medium. Maize and soybean seeds were wetted 24 hours at room temperature prior to sowing in pots.
# Arabidopsis primary root growth experiments were done on MS1/2 on vertical standing plates and roots were measured 11 days after germination. Roots were imaged using a flatbed scanner (EPSON Expression 11000XL) and root length was measured using ImageJ software. Arabidopsis shoot biomass was determined in 11 days after germination and growth on vertical standing plates with modMS. Arabidopsis leaf area was measured 21 days after germination on horizontal plates with modMS medium. Plates were scanned from the top using a flatbed scanner (EPSON Expression 11000XL) and the visible leaf area was measured using ImageJ software. Rice plate experiments used vertically standing Petri dishes containing MS1/2 medium (low phosphate—0.001 mM) solidified with 0.8% washed agar. Plant height was measured 11 days after germination. […] Plant height was measured 13 days after germination. […]
compound,measurement,setting,value
"CC1CN(CC(=O)c2c(N)n(C)c(=O)n(C)c2=O)c2ccccc2O1 (centres unmarked) [Compound 8, 6-amino-1,3-dimethyl-5-[2-(2-methyl-2,3-dihydro-1,4-benzoxazin-4-yl)acetyl]pyrimidine-2,4-dione]",Leaf area,"[1]; low phosphate, 10 μM, control 78",106 mm^2
same,Leaf area in sub-optimal phosphate conditions,"[1]; sub-optimal phosphate, control 104",143 mm^2
same,Relative anthocyanin level,[2],0.6
same,Plant height,"[3]; DKC2931, day 15, control 288",297 mm
same,Estimated volume,"[3]; DKC2931, day 15, control 361",393 cm^3
same,Plant height,"[3]; DKC2931, day 19, control 352",368 mm
same,Estimated volume,"[3]; DKC2931, day 19, control 576",763 cm^3
same,Plant height,"[3]; DKC2931, day 22, control 335",372 mm
same,Estimated volume,"[3]; DKC2931, day 22, control 843",1104 cm^3
same,Plant height,"[3]; DKC2931, day 26, control 378",452 mm
same,Estimated volume,"[3]; DKC2931, day 26, control 1145",1646 cm^3
same,Plant height,"[3]; DKC2931, day 27, control 352",460 mm
same,Estimated volume,"[3]; DKC2931, day 27, control 1086",1826 cm^3
same,Plant height,"[3]; DKC2931, day 29, control 399",471 mm
same,Estimated volume,"[3]; DKC2931, day 29, control 1581",2187 cm^3
same,Plant height,"[3]; DKC2931, day 33, control 424",553 mm
same,Estimated volume,"[3]; DKC2931, day 33, control 2272",3213 cm^3
same,Plant height,"[3]; DKC2931, day 36, control 531",634 mm
same,Estimated volume,"[3]; DKC2931, day 36, control 2854",3881 cm^3
same,Plant height,"[3]; DKC2931, day 40, control 578",694 mm
same,Estimated volume,"[3]; DKC2931, day 40, control 3872",5092 cm^3
same,Plant height,"[3]; DKC2931, day 43, control 655",756 mm
same,Estimated volume,"[3]; DKC2931, day 43, control 4240",5538 cm^3
same,Plant height,"[3]; DKC2931, day 47, control 732",799 mm
same,Estimated volume,"[3]; DKC2931, day 47, control 4988",6770 cm^3
same,Plant height,"[3]; DKC2931, day 50, control 777",844 mm
same,Estimated volume,"[3]; DKC2931, day 50, control 5718",7419 cm^3
same,Plant height,"[3]; DKC2931, day 54, control 562",652 mm
same,Estimated volume,"[3]; DKC2931, day 54, control 6325",8086 cm^3
same,Plant height,"[3]; DKC2931, day 57, control 678",894 mm
same,Estimated volume,"[3]; DKC2931, day 57, control 6295",7681 cm^3
same,Plant height,"[3]; DKC2931, day 61, control 893",1021 mm
same,Estimated volume,"[3]; DKC2931, day 61, control 6047",7458 cm^3
same,Plant height,"[3]; DKC2931, day 63, control 811",880 mm
same,Estimated volume,"[3]; DKC2931, day 63, control 5546",6642 cm^3
same,Plant height,"[3]; DKC2931, day 68, control 849",895 mm
same,Estimated volume,"[3]; DKC2931, day 68, control 4292",4967 cm^3
same,Plant height,"[3]; DKC2931, day 71, control 856",916 mm
same,Estimated volume,"[3]; DKC2931, day 71, control 4022",4807 cm^3
same,Plant height,"[3]; DKC2931, day 75, control 798",903 mm
same,Estimated volume,"[3]; DKC2931, day 75, control 3778",4587 cm^3
same,Average number of ears,"[3]; Maize pot long term DKC2931, 2.5 months, low phosphate, control 1",1
same,Shoot weight,"[3]; Maize pot long term DKC2931, low phosphate, control 27",33 g
same,Leaf 6,"[3]; Maize pot long term DKC2931, low phosphate, control 53",58 cm
same,Primary root length versus control without compound,[4]; 11-day-old Arabidopsis,almost double the length of the control
same,Primary root length,"[4]; Arabidopsis vertical plate, 11 days after germination, control 1.8",3.5 cm
same,Shoot biomass,"[4]; Arabidopsis vertical plate, 11 days after germination, control 11",21 mg
